Legend:
[1] = 101.33 kPa, Liquid
[2] = xn = mol fraction of the nth substance listed; settings: 101.33 kPa, Liquid

CC(C)CO [2-methyl-1-propanol]
[1]
Settings	mass density [kg/m3]	viscosity [mPa·s]
288.15 K	805.47	4.805
298.15 K	797.37	3.435
308.15 K	790.1	2.508
318.15 K	781.99	1.87

CCCCCl [1-chlorobutane] + CCC(C)O
[2]
Settings	mass density [kg/m3]	viscosity [mPa·s]
288.15 K, x2 = 0.05	887.1	–
288.15 K, x2 = 0.0965	–	0.496
288.15 K, x2 = 0.1177	881.38	–
288.15 K, x2 = 0.1435	879.24	–
288.15 K, x2 = 0.1962	874.99	–
288.15 K, x2 = 0.1973	–	0.542
288.15 K, x2 = 0.2227	872.88	–
288.15 K, x2 = 0.2962	–	0.601
288.15 K, x2 = 0.34	863.63	–
288.15 K, x2 = 0.3934	–	0.688
288.15 K, x2 = 0.4058	858.45	–
288.15 K, x2 = 0.4104	858.09	–
288.15 K, x2 = 0.4917	–	0.805
288.15 K, x2 = 0.4986	851.12	–
288.15 K, x2 = 0.5241	849.12	–
288.15 K, x2 = 0.5527	846.87	–
288.15 K, x2 = 0.5923	–	0.995
288.15 K, x2 = 0.6114	842.23	–
288.15 K, x2 = 0.6634	838.14	–
288.15 K, x2 = 0.6919	–	1.286
288.15 K, x2 = 0.7388	832.24	–
288.15 K, x2 = 0.7931	–	1.764
288.15 K, x2 = 0.7984	827.45	–
288.15 K, x2 = 0.8286	824.99	–
288.15 K, x2 = 0.884	820.5	–
288.15 K, x2 = 0.8933	–	2.648
288.15 K, x2 = 0.9367	816.07	–
298.15 K, x2 = 0.0965	–	0.444
298.15 K, x2 = 0.1973	–	0.478
298.15 K, x2 = 0.2962	–	0.524
298.15 K, x2 = 0.3934	–	0.587
298.15 K, x2 = 0.4917	–	0.675
298.15 K, x2 = 0.5923	–	0.811
298.15 K, x2 = 0.6919	–	1.011
298.15 K, x2 = 0.7931	–	1.334
298.15 K, x2 = 0.8933	–	1.901
308.15 K, x2 = 0.0965	–	0.399
308.15 K, x2 = 0.1007	860.49	–
308.15 K, x2 = 0.1941	853.08	–
308.15 K, x2 = 0.1973	–	0.426
308.15 K, x2 = 0.2775	846.72	–
308.15 K, x2 = 0.2962	–	0.462
308.15 K, x2 = 0.3881	838.47	–
308.15 K, x2 = 0.3934	–	0.51
308.15 K, x2 = 0.4876	831.15	–
308.15 K, x2 = 0.4917	–	0.577
308.15 K, x2 = 0.5897	823.73	–
308.15 K, x2 = 0.5923	–	0.676
308.15 K, x2 = 0.6919	–	0.818
308.15 K, x2 = 0.6927	816.37	–
308.15 K, x2 = 0.7931	–	1.034
308.15 K, x2 = 0.795	808.99	–
308.15 K, x2 = 0.8933	–	1.419
308.15 K, x2 = 0.8963	801.67	–
318.15 K, x2 = 0.0864	850.35	–
318.15 K, x2 = 0.0965	–	0.362
318.15 K, x2 = 0.1906	842.1	–
318.15 K, x2 = 0.1973	–	0.382
318.15 K, x2 = 0.2732	835.88	–
318.15 K, x2 = 0.2962	–	0.41
318.15 K, x2 = 0.382	828	–
318.15 K, x2 = 0.3934	–	0.45
318.15 K, x2 = 0.4862	820.61	–
318.15 K, x2 = 0.4917	–	0.498
318.15 K, x2 = 0.5852	813.65	–
318.15 K, x2 = 0.5923	–	0.571
318.15 K, x2 = 0.6823	806.95	–
318.15 K, x2 = 0.6919	–	0.676
318.15 K, x2 = 0.7865	799.78	–
318.15 K, x2 = 0.7931	–	0.825
318.15 K, x2 = 0.8928	792.59	–
318.15 K, x2 = 0.8933	–	1.072

CCCCO [butan-1-ol]
[1]
Settings	mass density [kg/m3]	viscosity [mPa·s]
288.15 K	813.42	3.346
298.15 K	805.4	2.56
308.15 K	798.14	1.991
318.15 K	790.19	1.569

CC(C)(C)O [2-methylpropan-2-ol]
[1]
Settings	mass density [kg/m3]	viscosity [mPa·s]
298.15 K	779.96	4.433
303.15 K	775.3	3.355
308.15 K	770.19	2.611
313.15 K	764.83	2.074
318.15 K	759.52	1.685
